Measured values: patent US9670142B2, “1,3-diaminocyclopentane carboxamide derivatives” (Merck Patent GmbH, priority 2013, dated 2017)

The compounds below were run against human fatty acid synthase FASN (Homo sapiens (Human), UniProt P49327) (assay: Biochemical activity testing of human fatty acid synthase FASN (NADPH fluorescence intensity enzyme assay)). Details: human recombinant full-length fatty acid synthase.
Outline: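 In-house Sf9-expressed full-length enzyme (3 μL of 40 nM) in 50 mM potassium phosphate pH 7.0 with glutathione, BSA and Tween-20, plus NADPH (2 μL of 200 μM), preincubated ≥15 min with compound (10 concentrations from 30 μM final, 1% DMSO). Acetyl-CoA/malonyl-CoA added; NADPH fluorescence (ex 340/em 460 nm) read before and after 30 min at room temperature, difference used for IC50.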

Sequence of human fatty acid synthase FASN (P49327 whole entry): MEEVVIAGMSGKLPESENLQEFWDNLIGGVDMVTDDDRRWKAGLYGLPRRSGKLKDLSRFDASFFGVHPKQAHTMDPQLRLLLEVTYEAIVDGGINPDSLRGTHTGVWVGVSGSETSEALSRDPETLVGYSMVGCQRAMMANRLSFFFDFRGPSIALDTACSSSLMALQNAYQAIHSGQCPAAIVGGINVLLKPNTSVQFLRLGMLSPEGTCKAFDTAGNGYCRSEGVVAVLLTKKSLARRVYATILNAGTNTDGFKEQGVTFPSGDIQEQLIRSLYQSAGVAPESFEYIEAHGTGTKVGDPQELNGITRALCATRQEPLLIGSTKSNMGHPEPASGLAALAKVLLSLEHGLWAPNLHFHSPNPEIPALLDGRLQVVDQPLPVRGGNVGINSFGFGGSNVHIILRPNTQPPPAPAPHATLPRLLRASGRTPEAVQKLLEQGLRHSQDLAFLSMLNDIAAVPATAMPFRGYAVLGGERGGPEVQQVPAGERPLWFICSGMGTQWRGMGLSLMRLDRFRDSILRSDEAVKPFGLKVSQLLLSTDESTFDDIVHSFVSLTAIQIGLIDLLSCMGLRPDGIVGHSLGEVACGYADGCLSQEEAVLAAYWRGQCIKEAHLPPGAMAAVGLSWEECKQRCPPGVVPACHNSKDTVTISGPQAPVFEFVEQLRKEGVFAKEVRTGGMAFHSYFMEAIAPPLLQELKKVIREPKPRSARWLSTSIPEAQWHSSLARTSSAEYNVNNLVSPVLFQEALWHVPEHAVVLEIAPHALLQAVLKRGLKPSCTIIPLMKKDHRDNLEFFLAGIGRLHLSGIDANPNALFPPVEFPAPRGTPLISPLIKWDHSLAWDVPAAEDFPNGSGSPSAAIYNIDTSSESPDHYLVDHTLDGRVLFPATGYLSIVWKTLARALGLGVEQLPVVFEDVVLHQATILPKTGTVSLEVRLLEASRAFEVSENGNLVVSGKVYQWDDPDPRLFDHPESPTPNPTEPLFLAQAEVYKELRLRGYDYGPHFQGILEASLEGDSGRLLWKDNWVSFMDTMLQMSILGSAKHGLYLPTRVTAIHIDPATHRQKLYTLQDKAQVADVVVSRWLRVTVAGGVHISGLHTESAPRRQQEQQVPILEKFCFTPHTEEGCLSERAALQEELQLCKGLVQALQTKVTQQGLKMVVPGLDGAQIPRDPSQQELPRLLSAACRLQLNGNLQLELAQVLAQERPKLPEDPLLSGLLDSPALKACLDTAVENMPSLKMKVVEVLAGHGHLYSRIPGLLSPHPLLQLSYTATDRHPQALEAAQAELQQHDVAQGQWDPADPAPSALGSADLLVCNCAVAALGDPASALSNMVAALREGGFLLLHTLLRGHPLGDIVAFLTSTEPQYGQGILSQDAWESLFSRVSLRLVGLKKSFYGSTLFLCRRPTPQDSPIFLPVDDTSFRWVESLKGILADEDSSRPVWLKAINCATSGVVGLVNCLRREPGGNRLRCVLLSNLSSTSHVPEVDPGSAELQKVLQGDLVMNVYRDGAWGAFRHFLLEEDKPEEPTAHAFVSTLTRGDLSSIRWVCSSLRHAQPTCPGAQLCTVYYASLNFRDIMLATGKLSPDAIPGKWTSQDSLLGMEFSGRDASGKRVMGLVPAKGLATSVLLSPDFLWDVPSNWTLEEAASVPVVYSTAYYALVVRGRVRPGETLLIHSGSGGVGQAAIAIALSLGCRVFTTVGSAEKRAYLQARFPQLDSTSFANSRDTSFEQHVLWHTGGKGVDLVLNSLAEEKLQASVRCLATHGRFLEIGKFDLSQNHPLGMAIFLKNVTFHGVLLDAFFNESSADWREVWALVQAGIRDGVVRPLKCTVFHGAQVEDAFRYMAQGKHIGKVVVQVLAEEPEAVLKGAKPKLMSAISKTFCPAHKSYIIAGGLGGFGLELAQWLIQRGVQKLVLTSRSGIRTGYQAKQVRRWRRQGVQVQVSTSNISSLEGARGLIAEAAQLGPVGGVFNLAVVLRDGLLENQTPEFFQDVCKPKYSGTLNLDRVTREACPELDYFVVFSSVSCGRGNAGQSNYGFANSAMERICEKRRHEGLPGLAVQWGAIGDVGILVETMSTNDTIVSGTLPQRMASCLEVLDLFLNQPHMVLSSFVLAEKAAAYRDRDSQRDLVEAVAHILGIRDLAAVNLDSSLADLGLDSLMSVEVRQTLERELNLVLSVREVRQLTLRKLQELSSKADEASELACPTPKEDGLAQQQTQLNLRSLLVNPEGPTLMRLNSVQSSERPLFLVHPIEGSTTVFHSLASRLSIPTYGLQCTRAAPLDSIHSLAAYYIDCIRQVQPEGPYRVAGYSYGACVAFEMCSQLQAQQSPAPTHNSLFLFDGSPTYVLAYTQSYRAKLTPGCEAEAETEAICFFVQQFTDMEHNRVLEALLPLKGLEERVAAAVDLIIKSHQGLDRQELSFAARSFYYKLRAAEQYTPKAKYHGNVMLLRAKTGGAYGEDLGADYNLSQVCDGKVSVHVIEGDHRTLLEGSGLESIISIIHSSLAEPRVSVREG

Row | IC50 [µM] | SMILES
1 | 3 to 50 | CCC(=O)N[C@H]1CC[C@@H](N(C)C(=O)c2ccc(-c3ccc4c(c3)C(F)(F)C(=O)N4)nc2)C1 [Compound A147, 6-(3,3-difluoro-2-oxo-2,3-dihydro-1H-indol-5-yl)-N-methyl-N-((1R,3S)-3-propionylamino-cyclopentyl)-nicotinamide]
2 | 0.3 to 3 | CCC(=O)N[C@H]1CC[C@@H](N(C)C(=O)c2cnc(-c3nc4ccc(Cl)cc4o3)cn2)C1 [Compound A148, 5-(6-chloro-benzoxazol-2-yl)-pyrazine-2-carboxylic acid methyl-((1R,3S)-3-propionylamino-cyclopentyl)-amide]
3 | 0.3 to 3 | CN(C(=O)c1ncc(-c2nc3ccc(Cl)cc3o2)cn1)[C@@H]1CC[C@H](NC(=O)[C@@H]2CCCO2)C1 [Compound A149, 5-(6-chloro-benzoxazol-2-yl)-pyrimidine-2-carboxylic acid methyl-{(1R,3S)-3-[((S)-tetrahydro-furan-2-carbonyl)-amino]-cyclopentyl}-amide]
4 | < 0.3 | CCC(=O)N[C@H]1CC[C@@H](N(C)C(=O)c2ccc(-c3ccc4[nH]ccc4c3C)nn2)C1 [Compound A150, 6-(4-methyl-1H-indol-5-yl)-pyridazine-3-carboxylic acid methyl-((1R,3S)-3-propionylamino-cyclopentyl)-amide]
5 | < 0.3 | CCC(=O)N[C@H]1CC[C@@H](N(C)C(=O)c2ccc(-c3ccc4[nH]ccc4c3F)c(F)c2)C1 [Compound A151, 3-fluoro-4-(4-fluoro-1H-indol-5-yl)-N-methyl-N-((1R,3S)-3-propionylamino-cyclopentyl)-benzamide]
6 | < 0.3 | CCC(=O)N[C@H]1CC[C@@H](N(C)C(=O)c2ccc(-c3ccc4c(c3)c(CN)cn4C)cc2)C1 [Compound A152, 4-(3-aminomethyl-1-methyl-1H-indol-5-yl)-N-methyl-N-((1R,3S)-3-propionylamino-cyclopentyl)-benzamide]
7 | < 0.3 | CCC(=O)N[C@H]1CC[C@@H](N(C)C(=O)c2ccc(-c3nc4ccc(Cl)cc4o3)nc2)C1 [Compound A153, 6-(6-chloro-benzoxazol-2-yl)-N-methyl-N-((1R,3S)-3-propionylamino-cyclopentyl)-nicotinamide]
8 | < 0.3 | CN(C(=O)c1ccc(-c2nc3ccc(Cl)cc3o2)nc1)[C@@H]1CC[C@H](NC(=O)[C@@H]2CCCO2)C1 [Compound A154, 6-(6-chloro-benzoxazol-2-yl)-N-methyl-N-{(1R,3S)-3-[((S)-tetrahydro-furan-2-carbonyl)-amino]-cyclopentyl}-nicotinamide]
9 | 3 to 50 | CCC(=O)N[C@H]1CC[C@@H](N(C)C(=O)c2ccc(-c3nc4ccc(Cl)cc4o3)nn2)C1 [Compound A155, 6-(6-chloro-benzoxazol-2-yl)-pyridazine-3-carboxylic acid methyl-((1R,3S)-3-propionylamino-cyclopentyl)-amide]
10 | 3 to 50 | CCC(=O)N[C@H]1CC[C@@H](N(C)C(=O)c2ncc(-c3nc4ccc(Cl)cc4o3)cn2)C1 [Compound A156, 5-(6-chloro-benzoxazol-2-yl)-pyrimidine-2-carboxylic acid methyl-((1R,3S)-3-propionylamino-cyclopentyl)-amide]
11 | < 0.3 | CCC(=O)N[C@H]1CC[C@@H](N(C)C(=O)c2ccc(-c3ccc4cc[nH]c4c3F)nc2)C1 [Compound A157, 6-(7-fluoro-1H-indol-6-yl)-N-methyl-N-((1R,3S)-3-propionylamino-cyclopentyl)-nicotinamide]
12 | 0.3 to 3 | CN(C(=O)c1ccc(-c2nc3ccc(Cl)cc3o2)nn1)[C@@H]1CC[C@H](NC(=O)[C@@H]2CCCO2)C1 [Compound A158, 6-(6-chloro-1,3-benzoxazol-2-yl)-N-methyl-N-[(1R,3S)-3-[[(2S)-tetrahydrofuran-2-carbonyl]amino]cyclopentyl]pyridazine-3-carboxamide]
13 | < 0.3 | CN(C(=O)c1cnc(-c2nc3ccc(Cl)cc3o2)cn1)[C@@H]1CC[C@H](NC(=O)[C@@H]2CCCO2)C1 [Compound A159, 5-(6-chloro-benzoxazol-2-yl)-pyrazine-2-carboxylic acid methyl-{(1R,3S)-3-[((S)-tetrahydro-furan-2-carbonyl)-amino]-cyclopentyl}-amide]
14 | < 0.3 | CCC(=O)N[C@H]1CC[C@@H](N(C)C(=O)c2ccc(-c3ccc4[nH]cc(C(N)=O)c4c3)c(F)c2)C1 [Compound A160, 5-{2-fluoro-4-[methyl-((1R,3S)-3-propionylamino-cyclopentyl)-carbamoyl]-phenyl}-1H-indole-3-carboxylic acid amide]
15 | 3 to 50 | CC(=O)N[C@@H]1CC[C@@H](N(C)C(=O)c2ccc(-c3nc4ccccc4o3)cc2)C1 [Compound A166, N-((1R,3R)-3-acetylamino-cyclopentyl)-4-benzooxazol-2-yl-N-methyl-benzamide]
16 | 3 to 50 | CN(C(=O)c1ccc(-c2nc3ccccc3o2)cc1)[C@@H]1CC[C@@H](NC(=O)Cc2ccccc2)C1 [Compound A167, 4-benzoxazol-2-yl-N-methyl-N-((1R,3R)-3-phenylacetylamino-cyclopentyl)-benzamide]
17 | 3 to 50 | CC[C@@H](C)CC(=O)N[C@@H]1CC[C@@H](N(C)C(=O)c2ccc(-c3nc4ccccc4o3)cc2)C1 [Compound A168, 4-benzoxazol-2-yl-N-methyl-N-[(1R,3R)-3-((R)-3-methyl-pentanoylamino)-cyclopentyl]-benzamide]
18 | 0.3 to 3 | CCC(=O)N[C@H]1CC[C@@H](N(C)C(=O)c2ccc(-c3cc(F)c4[nH]cc(C(N)=O)c4c3)c(F)c2)C1 [Compound A172, 7-fluoro-5-{2-fluoro-4-[methyl-((1R,3S)-3-propionylamino-cyclopentyl)-carbamoyl]-phenyl}-1H-indole-3-carboxylic acid amide]
19 | < 0.3 | CN(C(=O)c1ccc(-c2nc3cc(Cl)ccc3o2)cc1)[C@@H]1CC[C@H](NC(=O)[C@@H]2CCCO2)C1 [Compound A174]

Row | SMILES | IC50 [µM]
20 | CCC(=O)N[C@@H]1CC[C@@H](N(C)C(=O)c2ccc(-c3nc4ccccc4o3)cc2)C1 [Compound A165, 4-benzoxazol-2-yl-N-methyl-N-((1R,3R)-3-propionylamino-cyclopentyl)-benzamide] | 3 to 50
